In publication PMC10983791 (ACS chemical biology, 2023):
Entries after “also recorded” stand apart in the source; their conditions may differ.

Key:
Type in all cases: biochemical
[1] = molecular target: T1, GNMT (Homo sapiens, UniProt Q14749); assay: KM determination by method of initial rates, GNMT; conditions: read-out: KM, substrate, SAM 100 μM, MTase-Glo readout
T1 sequence (Q14749 1-295): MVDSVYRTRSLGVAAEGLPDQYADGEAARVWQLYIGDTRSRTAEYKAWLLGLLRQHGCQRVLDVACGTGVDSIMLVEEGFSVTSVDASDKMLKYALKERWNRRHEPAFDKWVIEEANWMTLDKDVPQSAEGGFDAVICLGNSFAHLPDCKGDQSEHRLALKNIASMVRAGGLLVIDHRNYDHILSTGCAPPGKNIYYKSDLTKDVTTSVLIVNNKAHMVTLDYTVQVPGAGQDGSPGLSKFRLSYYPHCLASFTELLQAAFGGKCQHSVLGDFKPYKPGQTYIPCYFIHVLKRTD

[2] = molecular target: T2, HNMT (Homo sapiens, UniProt P50135); assay: MTase-Glo HNMT inhibition assay; conditions: for HNMT activity and specificity in SAR analysis: SAR expansion of diazepine chemotype; for potency loss: relative to the best analogs with pyridine nitrogen; for activity in HTS and follow-up: MTase-Glo, top dose 40 μM
T2 sequence (P50135 whole entry): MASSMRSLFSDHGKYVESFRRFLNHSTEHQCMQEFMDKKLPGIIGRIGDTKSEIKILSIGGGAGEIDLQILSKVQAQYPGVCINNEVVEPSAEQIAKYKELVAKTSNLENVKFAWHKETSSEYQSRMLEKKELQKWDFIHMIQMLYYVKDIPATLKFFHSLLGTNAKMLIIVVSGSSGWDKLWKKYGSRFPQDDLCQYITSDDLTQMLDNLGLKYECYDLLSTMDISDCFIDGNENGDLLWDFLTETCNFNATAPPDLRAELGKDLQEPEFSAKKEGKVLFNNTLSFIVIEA

[3] = molecular target: T2, HNMT; assay: LC-MS orthogonal assay, HNMT; conditions: for response in MS assay: LC-MS dose response
[4] = molecular target: T3, COMT (Homo sapiens, UniProt P21964); assay: LC-MS orthogonal assay, COMT
T3 sequence (P21964 1-271): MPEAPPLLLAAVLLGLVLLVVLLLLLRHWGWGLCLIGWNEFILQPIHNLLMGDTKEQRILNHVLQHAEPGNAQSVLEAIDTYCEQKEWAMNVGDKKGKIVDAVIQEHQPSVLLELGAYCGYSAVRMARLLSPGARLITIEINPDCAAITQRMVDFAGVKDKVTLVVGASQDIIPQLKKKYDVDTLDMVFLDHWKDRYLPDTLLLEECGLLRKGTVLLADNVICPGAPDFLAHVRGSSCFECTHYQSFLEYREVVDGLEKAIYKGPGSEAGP

[5] = molecular target: T4, NNMT (Homo sapiens, UniProt P40261); assay: LC-MS orthogonal assay, NNMT
T4 sequence (P40261 1-264): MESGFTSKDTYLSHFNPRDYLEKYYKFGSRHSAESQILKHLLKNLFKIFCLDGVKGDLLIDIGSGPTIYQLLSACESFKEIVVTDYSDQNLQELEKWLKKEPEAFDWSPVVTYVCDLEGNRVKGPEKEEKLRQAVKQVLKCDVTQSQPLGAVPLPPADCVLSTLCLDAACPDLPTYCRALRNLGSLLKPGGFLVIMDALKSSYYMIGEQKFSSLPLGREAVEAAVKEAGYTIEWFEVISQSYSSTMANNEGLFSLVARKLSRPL

[6] = molecular target: T5, PNMT (Homo sapiens, UniProt P11086); assay: LC-MS orthogonal assay, PNMT
T5 sequence (P11086 1-282): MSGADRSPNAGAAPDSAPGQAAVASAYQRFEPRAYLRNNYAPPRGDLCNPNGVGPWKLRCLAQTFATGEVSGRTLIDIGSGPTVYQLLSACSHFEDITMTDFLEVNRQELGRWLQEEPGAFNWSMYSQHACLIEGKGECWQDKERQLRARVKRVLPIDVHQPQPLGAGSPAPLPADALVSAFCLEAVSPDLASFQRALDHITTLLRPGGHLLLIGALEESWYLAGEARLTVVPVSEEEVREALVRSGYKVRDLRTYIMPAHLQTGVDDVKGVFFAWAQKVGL

[7] = molecular target: T1, GNMT; assay: LC-MS orthogonal assay, GNMT
[8] = molecular target: T1, GNMT; assay: MTase-Glo GNMT inhibition assay; conditions: for activity in HTS and follow-up: MTase-Glo, top dose 40 μM
[9] = molecular target: T5, PNMT; assay: MTase-Glo PNMT inhibition assay; conditions: for activity in HTS and follow-up: MTase-Glo, top dose 40 μM
[10] = molecular target: T3, COMT; assay: MTase-Glo COMT inhibition assay; conditions: for activity in HTS and follow-up: MTase-Glo, top dose 40 μM
[11] = molecular target: T4, NNMT; assay: MTase-Glo NNMT inhibition assay; conditions: for activity in HTS and follow-up: MTase-Glo, top dose 40 μM
[12] = molecular target: GAMT (Homo sapiens, UniProt Q14353); assay: MTase-Glo GAMT inhibition assay; conditions: for activity in HTS and follow-up: MTase-Glo, top dose 40 μM
[13] = system: MTase-Glo coupled reporter assay; assay: MTase-Glo counter-assay; conditions: 1 μM SAH in place of enzyme; for result in counter-assay replicates: two counter-assay replicates
[14] = 11-point dose response, up to 50 μM

SMILES: NCC(=O)O [Glycine]
- Km [1]: > 500 µM

SMILES: c1cncc(Nc2cc3c(cn2)CN(Cc2ccsc2)CCN3)c1 [NCGC00411044]
- HNMT activity and specificity in SAR analysis ([2]; 11-point dose response): most active HNMT-selective compounds; also recorded: showed best activity
- IC50 ([2]; read-out: IC50, MTase Glo assay): 2450 nM
- IC50 ([3]; read-out: IC50, MS assay, LC-MS readout of SAH, n=3): 670 nM
- response in MS assay [4]: No response
- response in MS assay [5]: No response
- response in MS assay [6]: No response
- response in MS assay [7]: No response

SMILES: c1ccc(Nc2cc3c(cn2)CN(Cc2c[nH]c4ccccc24)CCN3)cc1 [NCGC00411050]
- potency loss [2]: at least 10 fold

SMILES: c1ccc(Nc2cc3c(cn2)CN(Cc2cc[nH]n2)CCN3)cc1 [NCGC00411115]
- potency loss [2]: at least 10 fold

SMILES: c1cncc(Nc2cc3c(cn2)CN(CC2CCOC2)CCN3)c1 (centres unmarked) [NCGC00411147]
- HNMT activity and specificity in SAR analysis ([2]; 11-point dose response): potency loss

SMILES: Cn1cc(CN2CCNc3cc(Nc4cccnc4)ncc3C2)cn1 [NCGC00411154]
- HNMT activity and specificity in SAR analysis ([2]; 11-point dose response): reduce activity

SMILES: Fc1ccccc1CN1CCNc2cc(Nc3cccnc3)ncc2C1 [NCGC00411168]
- HNMT activity and specificity in SAR analysis ([2]; 11-point dose response): showed best activity

SMILES: Cc1cc(-c2cc3c(cn2)CN(Cc2cccs2)CCN3)ccn1 [NCGC00411196]
- potency loss [2]: at least 10 fold

SMILES: Oc1ccccc1CN1CCNc2cc(Nc3ccccc3)ncc2C1 [NCGC00411199]
- potency loss [2]: at least 10 fold

SMILES: c1cncc(Nc2cc3c(cn2)CN(Cc2c[nH]c4ccccc24)CCN3)c1 [NCGC00411220]
- HNMT activity and specificity in SAR analysis ([2]; 11-point dose response): reduced specificity

SMILES: COc1ccc(C(=O)Nc2cnn(-c3ncncc3N3CCC(C)CC3)c2)cc1 [NCGC00519772]
- activity in HTS and follow-up [2]: showed activity against all of the SMMTases tested
- activity in HTS and follow-up [8]: showed activity against all of the SMMTases tested
- activity in HTS and follow-up [9]: showed activity against all of the SMMTases tested
- activity in HTS and follow-up [10]: showed activity against all of the SMMTases tested
- activity in HTS and follow-up [11]: showed activity against all of the SMMTases tested
- activity in HTS and follow-up [12]: showed activity against all of the SMMTases tested
- result in counter-assay replicates [13]: conflicting results
- response in MS assay [3]: did not inhibit any SMMTase
- response in MS assay [4]: did not inhibit any SMMTase
- response in MS assay [5]: did not inhibit any SMMTase
- response in MS assay [6]: did not inhibit any SMMTase
- response in MS assay [7]: did not inhibit any SMMTase

SMILES: Cc1ccc(C(=O)Nc2cnn(-c3ncncc3N3CCC(C)CC3)c2)s1 [NCGC00519779]
- activity in HTS and follow-up [2]: showed activity against all of the SMMTases tested
- activity in HTS and follow-up [8]: showed activity against all of the SMMTases tested
- activity in HTS and follow-up [9]: showed activity against all of the SMMTases tested
- activity in HTS and follow-up [10]: showed activity against all of the SMMTases tested
- activity in HTS and follow-up [11]: showed activity against all of the SMMTases tested
- activity in HTS and follow-up [12]: showed activity against all of the SMMTases tested
- result in counter-assay replicates [13]: conflicting results
- response in MS assay [3]: did not inhibit any SMMTase
- response in MS assay [4]: did not inhibit any SMMTase
- response in MS assay [5]: did not inhibit any SMMTase
- response in MS assay [6]: did not inhibit any SMMTase
- response in MS assay [7]: did not inhibit any SMMTase

SMILES: Nc1ncnc2c1ncn2[C@@H]1O[C@H](C[C@@H](N)CC[C@H](N)C(=O)O)[C@@H](O)[C@H]1O [sinefungin, reference compound]
- inhibition by positive control [2, 14]: inhibitable
- inhibition by positive control [8, 14]: All MTases except GNMT were inhibitable
- inhibition by positive control [9, 14]: inhibitable
- inhibition by positive control [10, 14]: inhibitable
- inhibition by positive control [11, 14]: inhibitable
- inhibition by positive control [12, 14]: inhibitable
- inhibition of counter-assay by positive control [13]: not inhibited
